Results published in the supplement of paper PMC10307832.

Key:
Experiment in all cases: relative viability (nuclei count vs DMSO), 5 days (fraction); higher = more cells survive
NCI-H1975 = system: NCI-H1975
In short: (§1)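 Nuclei were stained with Hoechst during a one-step fixation (final 0.05% Triton X-100, 1% formaldehyde, 1 ug/ml Hoechst) carried out 5 days after dosing, then counted on 4× images. The cells, lung cancer lines in 1536-well plates, had been dosed by pin tool the day after seeding with one drug alone or a fixed anchor-drug dose plus five library-drug doses (not always all listed) in √10 steps. Relative viability is the nuclei count in treated wells divided by that in vehicle wells, and each value is the median of duplicate plates.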

LK-2 = system: LK-2
In short: as §1

EKVX = system: EKVX
In short: as §1

ChaGo-K-1 = system: ChaGo-K-1
In short: as §1

EPLC-272H = system: EPLC-272H
In short: as §1

NCI-H1666 = system: NCI-H1666
In short: as §1

SW 1573 = system: SW 1573
In short: as §1

EMC-BAC-2 = system: EMC-BAC-2
In short: as §1

HCC-78 = system: HCC-78
In short: as §1

LCLC-103H = system: LCLC-103H
In short: as §1

NCI-H322M = system: NCI-H322M
In short: as §1

LU99A = system: LU99A
In short: as §1

SW 900 = system: SW 900
In short: as §1

HCC-827 = system: HCC-827
In short: as §1

NCI-H2342 = system: NCI-H2342
In short: as §1

RERF-LC-KJ = system: RERF-LC-KJ
In short: as §1

NCI-H23 = system: NCI-H23
In short: as §1

SK-LU-1 = system: SK-LU-1
In short: as §1

PC-14 = system: PC-14
In short: as §1

NCI-H2126 = system: NCI-H2126
In short: as §1

NCI-H2405 = system: NCI-H2405
In short: as §1

Cc1sc2c(c1C)C(c1ccc(Cl)cc1)=N[C@@H](CC(=O)OC(C)(C)C)c1nnc(C)n1-2 [JQ1] + O=C(c1cc(Cc2n[nH]c(=O)c3ccccc23)ccc1F)N1CCN(C(=O)C2CC2)CC1 [Olaparib] (partner 8 µM)
relative viability (NCI-H1975; first compound 0.04 µM): 0.747
relative viability (NCI-H1975; first compound 0.1265 µM): 0.608
relative viability (NCI-H1975; first compound 0.4 µM): 0.473
relative viability (NCI-H1975; first compound 1.265 µM): 0.281
relative viability (NCI-H1975; first compound 4 µM): 0.342
relative viability (LK-2; first compound 0.04 µM): 0.639
relative viability (LK-2; first compound 0.1265 µM): 0.74
relative viability (LK-2; first compound 0.4 µM): 0.409
relative viability (LK-2; first compound 1.265 µM): 0.155
relative viability (LK-2; first compound 4 µM): 0.15
relative viability (EKVX; first compound 0.04 µM): 0.836
relative viability (EKVX; first compound 0.1265 µM): 0.817
relative viability (EKVX; first compound 0.4 µM): 0.825
relative viability (EKVX; first compound 1.265 µM): 0.78
relative viability (EKVX; first compound 4 µM): 0.399
relative viability (ChaGo-K-1; first compound 0.04 µM): 0.392
relative viability (ChaGo-K-1; first compound 0.1265 µM): 0.37
relative viability (ChaGo-K-1; first compound 0.4 µM): 0.29
relative viability (ChaGo-K-1; first compound 1.265 µM): 0.239
relative viability (ChaGo-K-1; first compound 4 µM): 0.214
relative viability (EPLC-272H; first compound 0.04 µM): 0.836
relative viability (EPLC-272H; first compound 0.1265 µM): 0.716
relative viability (EPLC-272H; first compound 0.4 µM): 0.53
relative viability (EPLC-272H; first compound 1.265 µM): 0.471
relative viability (EPLC-272H; first compound 4 µM): 0.199
relative viability (NCI-H1666; first compound 0.04 µM): 0.708
relative viability (NCI-H1666; first compound 0.1265 µM): 0.616
relative viability (NCI-H1666; first compound 0.4 µM): 0.685
relative viability (NCI-H1666; first compound 1.265 µM): 0.662
relative viability (NCI-H1666; first compound 4 µM): 0.577
relative viability (SW 1573; first compound 0.04 µM): 0.428
relative viability (SW 1573; first compound 0.1265 µM): 0.317
relative viability (SW 1573; first compound 0.4 µM): 0.344
relative viability (SW 1573; first compound 1.265 µM): 0.211
relative viability (SW 1573; first compound 4 µM): 0.178
relative viability (EMC-BAC-2; first compound 0.04 µM): 0.447
relative viability (EMC-BAC-2; first compound 0.1265 µM): 0.433
relative viability (EMC-BAC-2; first compound 0.4 µM): 0.391
relative viability (EMC-BAC-2; first compound 1.265 µM): 0.32
relative viability (EMC-BAC-2; first compound 4 µM): 0.259
relative viability (HCC-78; first compound 0.04 µM): 0.7
relative viability (HCC-78; first compound 0.1265 µM): 0.693
relative viability (HCC-78; first compound 0.4 µM): 0.807
relative viability (HCC-78; first compound 1.265 µM): 0.581
relative viability (HCC-78; first compound 4 µM): 0.494
relative viability (LCLC-103H; first compound 0.04 µM): 0.789
relative viability (LCLC-103H; first compound 0.1265 µM): 0.714
relative viability (LCLC-103H; first compound 0.4 µM): 0.605
relative viability (LCLC-103H; first compound 1.265 µM): 0.528
relative viability (LCLC-103H; first compound 4 µM): 0.432
relative viability (NCI-H322M; first compound 0.04 µM): 0.597
relative viability (NCI-H322M; first compound 0.1265 µM): 0.933
relative viability (NCI-H322M; first compound 0.4 µM): 0.654
relative viability (NCI-H322M; first compound 1.265 µM): 0.536
relative viability (NCI-H322M; first compound 4 µM): 0.461
relative viability (LU99A; first compound 0.04 µM): 0.264
relative viability (LU99A; first compound 0.4 µM): 0.169
relative viability (LU99A; first compound 1.265 µM): 0.114
relative viability (LU99A; first compound 4 µM): 0.111
relative viability (SW 900; first compound 0.04 µM): 0.862
relative viability (SW 900; first compound 0.1265 µM): 0.739
relative viability (SW 900; first compound 0.4 µM): 0.479
relative viability (SW 900; first compound 1.265 µM): 0.303
relative viability (SW 900; first compound 4 µM): 0.22
relative viability (HCC-827; first compound 0.04 µM): 0.622
relative viability (HCC-827; first compound 0.1265 µM): 0.477
relative viability (HCC-827; first compound 1.265 µM): 0.596
relative viability (HCC-827; first compound 4 µM): 0.363
relative viability (NCI-H2342; first compound 0.04 µM): 0.5
relative viability (NCI-H2342; first compound 0.1265 µM): 0.501
relative viability (NCI-H2342; first compound 0.4 µM): 0.476
relative viability (NCI-H2342; first compound 1.265 µM): 0.313
relative viability (NCI-H2342; first compound 4 µM): 0.295
relative viability (RERF-LC-KJ; first compound 0.04 µM): 0.904
relative viability (RERF-LC-KJ; first compound 0.1265 µM): 0.808
relative viability (RERF-LC-KJ; first compound 0.4 µM): 0.669
relative viability (RERF-LC-KJ; first compound 1.265 µM): 0.42
relative viability (RERF-LC-KJ; first compound 4 µM): 0.338
relative viability (NCI-H23; first compound 0.04 µM): 0.329
relative viability (NCI-H23; first compound 0.1265 µM): 0.341
relative viability (NCI-H23; first compound 0.4 µM): 0.162
relative viability (NCI-H23; first compound 1.265 µM): 0.179
relative viability (NCI-H23; first compound 4 µM): 0.127
relative viability (SK-LU-1; first compound 0.04 µM): 0.452
relative viability (SK-LU-1; first compound 0.1265 µM): 0.358
relative viability (SK-LU-1; first compound 0.4 µM): 0.374
relative viability (SK-LU-1; first compound 1.265 µM): 0.153
relative viability (SK-LU-1; first compound 4 µM): 0.124
relative viability (PC-14; first compound 0.04 µM): 0.271
relative viability (PC-14; first compound 0.1265 µM): 0.153
relative viability (PC-14; first compound 0.4 µM): 0.14
relative viability (PC-14; first compound 1.265 µM): 0.0655
relative viability (PC-14; first compound 4 µM): 0.0723
relative viability (NCI-H2126; first compound 0.04 µM): 0.895
relative viability (NCI-H2126; first compound 0.1265 µM): 0.909
relative viability (NCI-H2126; first compound 0.4 µM): 0.951
relative viability (NCI-H2126; first compound 1.265 µM): 0.8
relative viability (NCI-H2126; first compound 4 µM): 0.735
relative viability (NCI-H2405; first compound 0.04 µM): 0.867
relative viability (NCI-H2405; first compound 0.4 µM): 0.851
relative viability (NCI-H2405; first compound 1.265 µM): 0.693
relative viability (NCI-H2405; first compound 4 µM): 0.433
